Test results published in PMC4385830, “Group I Paks as therapeutic targets in NF2-deficient meningioma” (Oncotarget, 2015).

Legend:
Arachnoid cell AC07 = assay: Cell viability, MTT assay; format: cell-based; conditions: NF2+/+, 72 hrs
Procedure: (§1) Cells were plated at 3 × 10^3 cells per well in 96-well plates overnight and treated with various concentrations of Pak inhibitors for 72 hours. Cell viability was measured by MTT assay and the half maximal inhibitory concentration (IC50) was calculated.

Benign Ben-Men-1 = assay: Cell viability, MTT assay; format: cell-based; conditions: NF2−/−; 72 hrs; MTT
Procedure: as §1

Benign MN328 = assay: Cell viability, MTT assay; format: cell-based; conditions: NF2+/+
Procedure: as §1

Malignant KT21-MG1 = assay: Cell viability, MTT assay; format: cell-based; conditions: NF2−/−; 72 hrs; MTT
Procedure: as §1

Malignant MN525 = assay: Cell viability, MTT assay; format: cell-based; conditions: NF2+/+
Procedure: as §1

ABL1 = target: T1, ABL1 (Homo sapiens, UniProt P00519); assay: Kinase selectivity, Z'-LYTE; format: biochemical
T1 construct: purchased Invitrogen (Life Technologies) SelectScreen Z'-LYTE
Procedure: (§2) Kinase selectivity was assessed using a commercial service that employs a fluorescence-based, coupled-enzyme assay based on the differential sensitivity of phosphorylated and non-phosphorylated peptides to proteolytic cleavage (Invitrogen, Z'-LYTE®). This assay uses recombinant protein kinases and assay mixed optimized for each particular kinase (http://www.lifetechnologies.com/us/en/home/life-science/drug-discovery/target-and-lead-identification-and-validation /kinasebiology/kinase-activity-assays/z-lyte.html).

BTK = target: T2, BTK (Homo sapiens, UniProt Q06187); assay: Kinase selectivity, Z'-LYTE; format: biochemical
T2 construct: purchased Invitrogen (Life Technologies) SelectScreen Z'-LYTE
Procedure: as §2

CSNK1D (CK1 delta) = target: T3, CSNK1D (CK1 delta) (Homo sapiens, UniProt P48730); assay: Kinase selectivity, Z'-LYTE; format: biochemical
T3 construct: purchased Invitrogen (Life Technologies) SelectScreen Z'-LYTE
Procedure: as §2

CSNK1G2 (CK1 gamma 2) = target: T4, CSNK1G2 (CK1 gamma 2) (Homo sapiens, UniProt P78368); assay: Kinase selectivity, Z'-LYTE; format: biochemical
T4 construct: purchased Invitrogen (Life Technologies) SelectScreen Z'-LYTE
Procedure: as §2

EGFR (ErbB1) = target: T5, EGFR (ErbB1) (Homo sapiens, UniProt P00533); assay: Kinase selectivity, Z'-LYTE; format: biochemical
T5 construct: purchased Invitrogen (Life Technologies) SelectScreen Z'-LYTE
Procedure: as §2

EPHA2 = target: T6, EPHA2 (Homo sapiens, UniProt P29317); assay: Kinase selectivity, Z'-LYTE; format: biochemical
T6 construct: purchased Invitrogen (Life Technologies) SelectScreen Z'-LYTE
Procedure: as §2

FGFR4 = target: T7, FGFR4 (Homo sapiens, UniProt P22455); assay: Kinase selectivity, Z'-LYTE; format: biochemical
T7 construct: purchased Invitrogen (Life Technologies) SelectScreen Z'-LYTE
Procedure: as §2

G3K3B (G3K3 beta) = target: T8, G3K3B (G3K3 beta) (Homo sapiens, UniProt P49841); assay: Kinase selectivity, Z'-LYTE; format: biochemical
T8 construct: purchased Invitrogen (Life Technologies) SelectScreen Z'-LYTE
Procedure: as §2

IGF1R = target: T9, IGF1R (Homo sapiens, UniProt P08069); assay: Kinase selectivity, Z'-LYTE; format: biochemical
T9 construct: purchased Invitrogen (Life Technologies) SelectScreen Z'-LYTE
Procedure: as §2

INSR = target: T10, INSR (Homo sapiens, UniProt P06213); assay: Kinase selectivity, Z'-LYTE; format: biochemical
T10 construct: purchased Invitrogen (Life Technologies) SelectScreen Z'-LYTE
Procedure: as §2

ITK = target: T11, ITK (Homo sapiens, UniProt Q08881); assay: Kinase selectivity, Z'-LYTE; format: biochemical
T11 construct: purchased Invitrogen (Life Technologies) SelectScreen Z'-LYTE
T11 sequence (Q08881 1-620): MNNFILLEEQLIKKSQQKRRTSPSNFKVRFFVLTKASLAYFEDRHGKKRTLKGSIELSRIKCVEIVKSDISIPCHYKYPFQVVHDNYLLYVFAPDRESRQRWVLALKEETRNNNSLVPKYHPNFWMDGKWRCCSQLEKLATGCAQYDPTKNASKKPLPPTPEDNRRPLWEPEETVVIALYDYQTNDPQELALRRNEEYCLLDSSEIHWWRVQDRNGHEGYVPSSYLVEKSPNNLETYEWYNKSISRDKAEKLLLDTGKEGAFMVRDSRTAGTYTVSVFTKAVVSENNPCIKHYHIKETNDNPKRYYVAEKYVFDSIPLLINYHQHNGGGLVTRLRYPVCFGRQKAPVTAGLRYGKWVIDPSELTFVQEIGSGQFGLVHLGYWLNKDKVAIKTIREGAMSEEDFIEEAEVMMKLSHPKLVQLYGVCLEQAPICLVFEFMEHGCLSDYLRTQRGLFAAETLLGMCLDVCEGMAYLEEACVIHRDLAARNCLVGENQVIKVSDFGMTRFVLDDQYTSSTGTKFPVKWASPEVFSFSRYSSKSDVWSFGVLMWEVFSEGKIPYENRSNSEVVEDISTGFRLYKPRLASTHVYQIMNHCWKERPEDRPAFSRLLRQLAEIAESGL
Procedure: as §2

JAK1 = target: T12, JAK1 (Homo sapiens, UniProt P23458); assay: Kinase selectivity, Z'-LYTE; format: biochemical
T12 construct: purchased Invitrogen (Life Technologies) SelectScreen Z'-LYTE
Procedure: as §2

MAP2K1 (MEK1) = target: T13, MAP2K1 (MEK1) (Homo sapiens, UniProt Q02750); assay: Kinase selectivity, Z'-LYTE; format: biochemical
T13 construct: purchased Invitrogen (Life Technologies) SelectScreen Z'-LYTE
Procedure: as §2

MAPK10 (JNK3) = target: T14, MAPK10 (JNK3) (Homo sapiens, UniProt P53779); assay: Kinase selectivity, Z'-LYTE; format: biochemical
T14 construct: purchased Invitrogen (Life Technologies) SelectScreen Z'-LYTE
Procedure: as §2

MAPKAPK2 = target: T15, MAPKAPK2 (Homo sapiens, UniProt P49137); assay: Kinase selectivity, Z'-LYTE; format: biochemical
T15 construct: purchased Invitrogen (Life Technologies) SelectScreen Z'-LYTE
Procedure: as §2

MST1R (RON) = target: T16, MST1R (RON) (Homo sapiens, UniProt Q04912); assay: Kinase selectivity, Z'-LYTE; format: biochemical
T16 construct: purchased Invitrogen (Life Technologies) SelectScreen Z'-LYTE
Procedure: as §2

PAK2 (PAK65) = target: T17, PAK2 (PAK65) (Homo sapiens, UniProt Q13177); assay: Kinase selectivity, Z'-LYTE; format: biochemical
T17 construct: purchased Invitrogen (Life Technologies) SelectScreen Z'-LYTE
Procedure: as §2

PAK6 = target: T18, PAK6 (Homo sapiens, UniProt Q9NQU5); assay: Kinase selectivity, Z'-LYTE; format: biochemical
T18 construct: purchased Invitrogen (Life Technologies) SelectScreen Z'-LYTE
Procedure: as §2

ROCK1 = target: T19, ROCK1 (Homo sapiens, UniProt Q13464); assay: Kinase selectivity, Z'-LYTE; format: biochemical
T19 construct: purchased Invitrogen (Life Technologies) SelectScreen Z'-LYTE
Procedure: as §2

ROCK2 = target: T20, ROCK2 (Homo sapiens, UniProt O75116); assay: Kinase selectivity, Z'-LYTE; format: biochemical
T20 construct: purchased Invitrogen (Life Technologies) SelectScreen Z'-LYTE
Procedure: as §2

RP88KA8 (RSK2) = target: T21, RP88KA8 (RSK2) (Homo sapiens, UniProt P51812); assay: Kinase selectivity, Z'-LYTE; format: biochemical
T21 construct: purchased Invitrogen (Life Technologies) SelectScreen Z'-LYTE
Procedure: as §2

RP88KB1 (p70S6K) = target: T22, RP88KB1 (p70S6K) (Homo sapiens, UniProt P23443); assay: Kinase selectivity, Z'-LYTE; format: biochemical
T22 construct: purchased Invitrogen (Life Technologies) SelectScreen Z'-LYTE
Procedure: as §2

T3 sequence (P48730 whole entry): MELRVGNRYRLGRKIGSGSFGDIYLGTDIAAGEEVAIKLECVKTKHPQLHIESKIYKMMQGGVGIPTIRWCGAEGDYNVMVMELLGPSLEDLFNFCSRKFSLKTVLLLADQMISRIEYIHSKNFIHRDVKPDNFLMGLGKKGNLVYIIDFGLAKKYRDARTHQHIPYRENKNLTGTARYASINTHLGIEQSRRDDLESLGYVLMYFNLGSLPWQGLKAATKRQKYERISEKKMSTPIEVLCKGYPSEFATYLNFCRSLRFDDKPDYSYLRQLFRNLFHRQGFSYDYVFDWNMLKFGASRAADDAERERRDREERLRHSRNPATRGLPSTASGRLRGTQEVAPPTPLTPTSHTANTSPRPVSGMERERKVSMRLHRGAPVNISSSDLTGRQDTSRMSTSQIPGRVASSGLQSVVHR
T4 sequence (P78368 whole entry): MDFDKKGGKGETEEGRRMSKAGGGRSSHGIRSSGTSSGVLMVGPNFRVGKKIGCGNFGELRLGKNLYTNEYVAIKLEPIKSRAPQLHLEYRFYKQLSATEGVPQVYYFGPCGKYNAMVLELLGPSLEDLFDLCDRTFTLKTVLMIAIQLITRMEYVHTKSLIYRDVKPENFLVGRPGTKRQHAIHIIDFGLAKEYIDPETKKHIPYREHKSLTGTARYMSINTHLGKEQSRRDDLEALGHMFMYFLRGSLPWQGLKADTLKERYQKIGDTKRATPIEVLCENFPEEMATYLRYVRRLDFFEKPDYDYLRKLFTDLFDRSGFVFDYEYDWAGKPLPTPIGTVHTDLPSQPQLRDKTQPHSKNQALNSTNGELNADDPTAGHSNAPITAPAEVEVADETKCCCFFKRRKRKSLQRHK
T9 sequence (P08069 31-1367): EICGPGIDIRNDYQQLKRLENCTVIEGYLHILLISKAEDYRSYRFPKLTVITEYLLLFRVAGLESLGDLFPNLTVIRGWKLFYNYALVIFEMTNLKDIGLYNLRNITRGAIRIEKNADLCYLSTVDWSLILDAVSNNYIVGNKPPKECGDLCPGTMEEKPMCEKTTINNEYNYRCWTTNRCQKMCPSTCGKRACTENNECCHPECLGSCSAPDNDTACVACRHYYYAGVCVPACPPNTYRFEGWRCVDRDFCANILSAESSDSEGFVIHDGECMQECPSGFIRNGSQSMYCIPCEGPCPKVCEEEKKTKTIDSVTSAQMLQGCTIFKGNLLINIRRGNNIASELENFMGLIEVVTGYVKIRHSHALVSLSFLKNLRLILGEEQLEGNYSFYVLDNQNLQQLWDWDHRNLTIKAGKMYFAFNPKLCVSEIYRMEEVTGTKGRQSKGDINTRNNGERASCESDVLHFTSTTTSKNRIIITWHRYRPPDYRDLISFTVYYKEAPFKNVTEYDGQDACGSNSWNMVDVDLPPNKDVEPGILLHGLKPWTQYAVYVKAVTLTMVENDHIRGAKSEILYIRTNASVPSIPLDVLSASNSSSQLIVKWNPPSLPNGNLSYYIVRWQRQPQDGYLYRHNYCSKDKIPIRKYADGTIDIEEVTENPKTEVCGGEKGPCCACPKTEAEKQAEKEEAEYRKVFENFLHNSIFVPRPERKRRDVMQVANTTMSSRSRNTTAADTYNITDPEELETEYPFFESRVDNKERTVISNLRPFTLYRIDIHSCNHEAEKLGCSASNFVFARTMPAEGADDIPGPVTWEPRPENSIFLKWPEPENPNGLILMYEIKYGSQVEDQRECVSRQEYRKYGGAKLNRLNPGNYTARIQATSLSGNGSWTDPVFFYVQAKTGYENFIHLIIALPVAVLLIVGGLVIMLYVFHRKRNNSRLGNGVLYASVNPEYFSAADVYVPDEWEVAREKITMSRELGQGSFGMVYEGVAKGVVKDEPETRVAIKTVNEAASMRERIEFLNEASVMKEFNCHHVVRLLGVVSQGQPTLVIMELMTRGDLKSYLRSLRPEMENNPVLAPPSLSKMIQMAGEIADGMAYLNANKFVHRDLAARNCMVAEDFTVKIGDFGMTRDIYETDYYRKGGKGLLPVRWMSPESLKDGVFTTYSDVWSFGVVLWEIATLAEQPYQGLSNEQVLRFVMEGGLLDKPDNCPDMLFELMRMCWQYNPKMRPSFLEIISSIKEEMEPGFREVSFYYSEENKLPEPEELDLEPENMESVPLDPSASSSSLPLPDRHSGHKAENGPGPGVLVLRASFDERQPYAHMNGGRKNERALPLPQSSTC
T2 sequence (Q06187 whole entry): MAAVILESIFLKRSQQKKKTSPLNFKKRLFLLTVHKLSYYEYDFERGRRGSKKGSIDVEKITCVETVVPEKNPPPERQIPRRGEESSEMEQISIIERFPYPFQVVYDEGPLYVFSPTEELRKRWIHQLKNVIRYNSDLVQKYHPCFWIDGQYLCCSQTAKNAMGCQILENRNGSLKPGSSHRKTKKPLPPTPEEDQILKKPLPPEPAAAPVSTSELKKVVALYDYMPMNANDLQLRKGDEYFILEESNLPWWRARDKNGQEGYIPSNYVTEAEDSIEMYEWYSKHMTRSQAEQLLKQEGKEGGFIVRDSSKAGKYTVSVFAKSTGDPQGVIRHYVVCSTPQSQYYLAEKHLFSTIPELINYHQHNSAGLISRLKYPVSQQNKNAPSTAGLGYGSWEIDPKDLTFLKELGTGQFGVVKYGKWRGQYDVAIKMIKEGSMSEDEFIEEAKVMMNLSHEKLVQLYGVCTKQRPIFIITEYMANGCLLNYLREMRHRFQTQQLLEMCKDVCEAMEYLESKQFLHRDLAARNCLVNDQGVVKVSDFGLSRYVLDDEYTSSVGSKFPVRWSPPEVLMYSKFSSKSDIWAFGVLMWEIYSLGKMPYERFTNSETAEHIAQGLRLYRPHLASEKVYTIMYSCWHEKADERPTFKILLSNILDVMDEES
T17 sequence (Q13177 whole entry): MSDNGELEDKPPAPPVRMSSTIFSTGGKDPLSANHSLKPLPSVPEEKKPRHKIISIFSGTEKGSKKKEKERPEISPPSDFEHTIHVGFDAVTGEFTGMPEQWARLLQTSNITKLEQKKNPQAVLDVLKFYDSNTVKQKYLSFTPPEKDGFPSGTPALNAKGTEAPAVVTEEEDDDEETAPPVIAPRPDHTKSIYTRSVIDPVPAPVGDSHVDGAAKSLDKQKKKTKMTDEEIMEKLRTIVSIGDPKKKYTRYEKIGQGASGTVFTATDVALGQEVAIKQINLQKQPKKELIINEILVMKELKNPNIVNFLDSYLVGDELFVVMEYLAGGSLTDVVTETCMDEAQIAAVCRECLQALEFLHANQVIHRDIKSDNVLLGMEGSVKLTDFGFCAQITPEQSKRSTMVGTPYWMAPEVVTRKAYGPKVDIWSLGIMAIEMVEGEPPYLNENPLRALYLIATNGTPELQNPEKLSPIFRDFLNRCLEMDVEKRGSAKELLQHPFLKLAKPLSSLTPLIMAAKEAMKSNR
T10 sequence (P06213 28-1382): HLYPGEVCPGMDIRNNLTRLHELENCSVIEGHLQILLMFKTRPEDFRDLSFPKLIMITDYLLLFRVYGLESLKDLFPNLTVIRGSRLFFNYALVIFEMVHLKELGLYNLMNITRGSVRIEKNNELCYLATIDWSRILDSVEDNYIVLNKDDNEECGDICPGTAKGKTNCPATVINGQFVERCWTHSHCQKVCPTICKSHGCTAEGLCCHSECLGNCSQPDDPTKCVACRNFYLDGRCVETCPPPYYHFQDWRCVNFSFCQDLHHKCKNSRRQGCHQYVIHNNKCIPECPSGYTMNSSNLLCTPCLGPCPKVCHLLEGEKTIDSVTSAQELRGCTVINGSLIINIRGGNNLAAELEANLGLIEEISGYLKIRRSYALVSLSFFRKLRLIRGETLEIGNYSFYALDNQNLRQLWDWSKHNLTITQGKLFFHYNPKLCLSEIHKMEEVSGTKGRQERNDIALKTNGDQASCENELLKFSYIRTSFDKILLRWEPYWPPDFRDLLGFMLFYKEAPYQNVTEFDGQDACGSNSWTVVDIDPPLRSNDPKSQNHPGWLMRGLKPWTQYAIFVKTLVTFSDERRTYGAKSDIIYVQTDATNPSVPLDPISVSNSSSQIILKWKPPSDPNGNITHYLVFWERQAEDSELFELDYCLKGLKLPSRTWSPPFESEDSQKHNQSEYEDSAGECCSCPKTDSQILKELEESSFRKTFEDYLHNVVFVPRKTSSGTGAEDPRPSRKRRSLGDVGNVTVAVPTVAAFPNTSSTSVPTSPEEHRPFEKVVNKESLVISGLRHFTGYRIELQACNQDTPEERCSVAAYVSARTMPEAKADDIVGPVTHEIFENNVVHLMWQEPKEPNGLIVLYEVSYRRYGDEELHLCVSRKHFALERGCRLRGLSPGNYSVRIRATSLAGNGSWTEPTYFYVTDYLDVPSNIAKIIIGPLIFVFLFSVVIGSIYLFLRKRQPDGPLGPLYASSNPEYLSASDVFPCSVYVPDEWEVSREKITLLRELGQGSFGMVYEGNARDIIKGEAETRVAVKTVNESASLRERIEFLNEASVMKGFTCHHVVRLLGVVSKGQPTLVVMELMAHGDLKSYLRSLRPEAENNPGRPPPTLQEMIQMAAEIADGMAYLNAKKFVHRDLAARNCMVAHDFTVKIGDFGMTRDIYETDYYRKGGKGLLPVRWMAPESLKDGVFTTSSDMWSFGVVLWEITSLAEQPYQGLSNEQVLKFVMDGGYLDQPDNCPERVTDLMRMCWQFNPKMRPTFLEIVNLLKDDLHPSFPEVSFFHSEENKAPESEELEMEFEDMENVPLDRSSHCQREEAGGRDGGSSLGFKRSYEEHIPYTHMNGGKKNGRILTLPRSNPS

Row | % inhibition of activity (ABL1) [%] | % inhibition of activity (BTK) [%] | % inhibition of activity (CSNK1D (CK1 delta)) [%] | % inhibition of activity (CSNK1G2 (CK1 gamma 2)) [%] | % inhibition of activity (EGFR (ErbB1)) [%] | % inhibition of activity (EPHA2) [%] | % inhibition of activity (FGFR4) [%] | % inhibition of activity (G3K3B (G3K3 beta)) [%] | % inhibition of activity (IGF1R) [%] | % inhibition of activity (INSR) [%] | % inhibition of activity (ITK) [%] | % inhibition of activity (JAK1) [%] | % inhibition of activity (MAP2K1 (MEK1)) [%] | % inhibition of activity (MAPK10 (JNK3)) [%] | % inhibition of activity (MAPKAPK2) [%] | Compound | IC50 (Arachnoid cell AC07) [µM] | IC50 (Benign Ben-Men-1) [µM] | IC50 (Benign MN328; 72 hrs) [µM] | IC50 (Malignant KT21-MG1) [µM] | IC50 (Malignant MN525; 72 hrs) [µM] | other results
1 | 18 | 5 | 11 | 3 | 2 | 18 | 9 | 0 | 7 | 0 | 0 | 1 | 27 | 45 | 0 | CCn1c(=O)c(-c2ccc(-c3cncc(C)n3)cc2Cl)cc2cnc(NCCC3CCN(C)CC3)nc21 [Frax1036] | 1.24 | 1.89 | 4.24 | 1.99 | 3.3 | % inhibition of activity (MST1R (RON)): 55%; % inhibition of activity (PAK2 (PAK65)): 98%; % inhibition of activity (PAK6): 27%; % inhibition of activity (ROCK1): −2%; % inhibition of activity (ROCK2): 7%; % inhibition of activity (RP88KA8 (RSK2)): 11%; % inhibition of activity (RP88KB1 (p70S6K)): 10%
2 | 62 | 74 | 3 | 9 | 4 | 18 | 11 | 77 | 10 | 7 | 23 | 2 | 39 | 5 | 1 | Cc1nc(Nc2[nH]nc3c2CN(C(=O)N[C@H](CN(C)C)c2ccccc2)C3(C)C)c2sccc2n1 [PF3758309, reference compound] | 1.38 | 0.0293 | 3.43 | 0.376 | 5.32 | IC50 (Benign MN328; 72 h): 3.4 µM; IC50 (Malignant MN525; 72 h): 5.3 µM; % inhibition of activity (MST1R (RON)): 8%; % inhibition of activity (PAK2 (PAK65)): 100%; % inhibition of activity (PAK6): 98%; % inhibition of activity (ROCK1): 5%; % inhibition of activity (ROCK2): 10%; % inhibition of activity (RP88KA8 (RSK2)): 100%; % inhibition of activity (RP88KB1 (p70S6K)): 79%

Row | Compound | % inhibition of activity (ABL1) [%] | % inhibition of activity (BTK) [%] | % inhibition of activity (CSNK1D (CK1 delta)) [%] | % inhibition of activity (CSNK1G2 (CK1 gamma 2)) [%] | % inhibition of activity (EGFR (ErbB1)) [%] | % inhibition of activity (EPHA2) [%] | % inhibition of activity (FGFR4) [%] | % inhibition of activity (G3K3B (G3K3 beta)) [%] | % inhibition of activity (IGF1R) [%] | % inhibition of activity (INSR) [%] | % inhibition of activity (ITK) [%] | % inhibition of activity (JAK1) [%] | % inhibition of activity (MAP2K1 (MEK1)) [%] | % inhibition of activity (MAPK10 (JNK3)) [%] | % inhibition of activity (MAPKAPK2) [%] | IC50 (Arachnoid cell AC07) [µM] | IC50 (Benign Ben-Men-1) [µM] | IC50 (Benign MN328; 72 hrs) [µM] | IC50 (Malignant KT21-MG1) [µM] | IC50 (Malignant MN525; 72 hrs) [µM] | other results
3 | CCn1c(=O)c(-c2ccc(-c3noc(C)n3)cc2Cl)cc2cnc(Nc3ccc(C4CCN(C)CC4)cc3)nc21 [Frax716] | 93 | 87 | 6 | 3 | 20 | 68 | 20 | 14 | 23 | 14 | 84 | 1 | 48 | 12 | 7 | 0.288 | 0.218 | 0.718 | 1.1 | 0.494 | % inhibition of activity (MST1R (RON)): 40%; % inhibition of activity (PAK2 (PAK65)): 100%; % inhibition of activity (PAK6): 17%; % inhibition of activity (ROCK1): 2%; % inhibition of activity (ROCK2): 4%; % inhibition of activity (RP88KA8 (RSK2)): 6%; % inhibition of activity (RP88KB1 (p70S6K)): 1%
